In patent publication US9526782B2, “Pharmaceutical compositions comprising inhibitors of zinc-ZIP8-MTF1 as active ingredients for preventing or treating a joint disease” (GWANGJU INSTITUTE OF SCIENCE AND TECHNOLOGY, priority 2014, dated 2016):

Columns and labels:
Mt1 and Mt2 = assay: mRNA and protein levels of MT1 and MT2 in chondrocytes; format: cell-based, mouse; conditions: primary cultured chondrocytes
Source text: (§1) Total RNA was extracted from primary cultured chondrocytes using the TRI reagent (Molecular Research Center Inc.). For the isolation of RNA from knee joints, cartilage tissues were scraped with a blade to remove cartilage, and RNA was isolated using the TRI reagent and Purelink RNA mini kit (Ambion). The RNA was reverse transcribed, and the resulting cDNA was amplified by PCR.

DMM-operated mice = assay: DMM surgery-induced OA with Zn^2+ diets or intraperitoneal ZnCl2; format: in vivo, mouse; conditions: intraperitoneal, 5 mg/kg body weight twice a week, 6 weeks after surgery
Method: FIG. 6m represents that knee joint sections were prepared from sham- and DMM-operated mice that were fed low-Zn^2+ (<0.5 mg zinc/kg), adequate-Zn^2+ (30 mg zinc/kg), or high-Zn^2+ (300 mg zinc/kg) diets. Cartilage destruction was determined by safranin-O/hematoxylin staining and quantified (n=10).
FIG. 6n represents that sham- and DMM-operated mice were intraperitoneally injected with PBS or ZnCl2 (5 mg/kg body weight) twice a week until they are sacrificed 6 weeks after surgery. Knee joint sections were stained with safranin-O/hematoxylin and cartilage destruction was determined (n=10). […]
Human OA cartilage was frozen, sectioned at 10-μm thickness, and fixed in paraformaldehyde. Sulfate proteoglycan was detected with alcian blue staining. Human ZIP8 was detected by immunostaining. […] Sections were deparaffinized in xylene, hydrated with graded ethanol, and stained with safranin-O. Cartilage destruction was scored by two blinded observers using the OARSI grading system (Glasson et al., 2010). Synovitis was determined by safranin-O and hematoxylin staining, and synovial inflammation (grade 0-3) was scored as described previously (Yang et al., 2010). Osteophyte development was identified by safranin-O staining, and osteophyte maturity was quantified as described previously (Oh et al., 2012). […]

MTF1 = biological target: T1, MTF1 (Mus musculus, UniProt Q07243); assay: MTF1 activity reporter gene assay and immunostaining in chondrocytes; format: cell-based
T1 construct: endogenous in cells; host or cells: primary mouse articular chondrocytes
Method: The MTF1 reporter gene assay kit was obtained from SABiosciences. Chondrocytes were transfected for 6 hours with a metal response element (MRE) reporter construct and a constitutive Renilla luciferase construct using Lipofectamine 2000 (Invitrogen). Transfected cells were infected with Ad-Mtf1 or Ad-Zip8 for 2 hours or treated with metal ions. Cells were harvested 24 hours after treatment, and firefly luciferase and Renilla luciferase activities were measured using a Dual Luciferase Assay System (Promega). […] MTF1 was detected by immunofluorescence microscopy. Images were acquired using a fluorescence microscope, and at least 200 cells were examined in multiple fields per condition to quantify the percentage of nuclear MTF1-positive cells.

[1] = tested on: matrix-degrading enzymes (MMP3, MMP9, MMP12, MMP13, and ADAMTS5); assay: mRNA (qRT-PCR) and protein (Western blotting) levels of matrix-degrading enzymes in chondrocytes; format: cell-based, mouse
Method: Adenoviruses expressing mouse Zip8 (Ad-Zip8) and Mtf1 (Ad-Mtf1) were purchased from Vector Biolabs. Mouse articular chondrocytes were cultured for 2 days, infected with empty virus (Ad-C), Ad-Zip8, or Ad-Mtf1 for 2 hours at the indicated multiplicity of infection (MOI), and cultured for 24 hours, followed by further analyses.
as §1
Transcript levels were quantified by qRT-PCR. siRNAs targeting Zip8 and Mtf1 were obtained from Dharmacon and transfected using Lipofectamine 2000. Non-targeting (scrambled) siRNA was used as a negative control. Chondrocytes were transfected by incubating for 6 hours with siRNA and Lipofectamine 2000 (Invitrogen), and infected with adenoviruses as described above. Therapeutic antibodies for obstruction of ZIP8 function were purchased from Santa Cruz Biotechnology and MyBioSource Company, and treated in chondrocytes for 24 hours.
Total cell lysates were prepared in lysis buffer (150 mM NaCl, 1% NP-40, 50 mM Tris, 5 mM NaF) and used to detect cellular proteins (ZIP8, MTF1, and ERK). Secreted proteins (MMP3, MMP13, and ADAMTS5) were detected after trichloroacetic acid (TCA) precipitation from 900 μl of serum-free conditioned medium. All lysis buffers contained a cocktail of protease inhibitors and phosphatase inhibitors (Roche).

[2] = Ad-Zip8 chondrocytes, TPEN 1 μM pre-incubated with 1 μM metal ion

T1 sequence (Q07243 whole entry): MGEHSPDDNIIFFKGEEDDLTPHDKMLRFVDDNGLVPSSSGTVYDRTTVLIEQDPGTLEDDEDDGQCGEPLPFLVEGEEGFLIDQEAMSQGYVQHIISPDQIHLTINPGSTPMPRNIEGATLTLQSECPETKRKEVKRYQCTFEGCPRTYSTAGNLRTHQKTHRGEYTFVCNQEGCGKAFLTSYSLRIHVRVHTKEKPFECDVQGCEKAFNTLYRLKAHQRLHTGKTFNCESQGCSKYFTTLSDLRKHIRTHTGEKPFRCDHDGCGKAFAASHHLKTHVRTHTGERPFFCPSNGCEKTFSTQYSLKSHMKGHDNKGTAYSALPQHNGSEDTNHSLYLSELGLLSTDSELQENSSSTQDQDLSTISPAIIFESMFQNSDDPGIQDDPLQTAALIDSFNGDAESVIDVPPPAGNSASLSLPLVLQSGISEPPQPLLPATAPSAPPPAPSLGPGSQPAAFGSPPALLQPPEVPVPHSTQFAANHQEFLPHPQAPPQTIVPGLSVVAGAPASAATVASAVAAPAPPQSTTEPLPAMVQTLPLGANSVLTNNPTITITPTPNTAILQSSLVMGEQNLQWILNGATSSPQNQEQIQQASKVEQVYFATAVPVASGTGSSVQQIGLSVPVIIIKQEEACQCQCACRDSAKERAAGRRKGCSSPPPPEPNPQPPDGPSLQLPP

Compound: [Cl-].[Cl-].[Zn+2] [ZnCl2]
- expression of Mt1 and Mt2 (Mt1 and Mt2): significantly increased
- DMM-induced cartilage destruction (DMM-operated mice): augmented
- inhibitory effects of TPEN on MTF1 transcriptional activity, effect of pre-incubation of TPEN with the metal salt (MTF1; [2]): abolished
- nuclear localization of MTF1 (MTF1; chondrocytes): most effective
- MTF1 transcriptional activity, effect of the substance itself (MTF1; chondrocytes, reporter gene assay): most effective
- inhibitory effects of TPEN on the ZIP8-mediated expression of matrix-degrading enzymes, effect of pre-incubation of TPEN with the metal salt [1, 2]: effectively abolished
- expression of matrix-degrading enzymes caused by the substance itself ([1]; chondrocytes, metal salts 100 μM (CdCl2 1 μM)): up-regulated
